“Also recorded” adds a separate entry of the source.
Columns and labels:
HeLa cells [1] = experiment: Immunofluorescence analysis of intracellular γ-H2AX generation in iron-overloaded HeLa cells (with H2O2); type: cell-based, human; settings: for Fluorescence intensity of γ-H2AX: Fe(II)-H2O2 alone 2.86±0.64; for Concentration that significantly inhibits cellular DNA damage induced by iron overload (with H2O2) / Inhibition of cellular DNA damage induced by iron overload (with H2O2), in words: γ-H2AX, HeLa; for Concentration that significantly inhibits cellular DNA damage induced by iron overload (with H2O2): pre-treatment
Method: The immortalized human cervical carcinoma HeLa cell line used in this study was obtained from the Cell Resource Center, Peking Union Medical College. The cell line was checked to be free of mycoplasma contamination by PCR and culture. Its species origin was confirmed with PCR. The identity of the cell line was authenticated with STR profiling (FBI, CODIS). HeLa cells were cultured in a DMEM medium (4 mM L-glutamine, 4500 mg/L glucose, and no sodium pyruvate) with 10% fetal bovine serum (FBS) and 1% penicillin–streptomycin at 37 °C under a 5% CO2 atmosphere.
HeLa cells (10^4/well) were loaded by incubation with 20 μM Fe(II) for 2 h at 37 °C. […] For a detailed experimental procedure, please refer to the Supplementary Materials and our previous report. The experiment was repeated three times. The observation of the fluorescence of γ-H2AX in HeLa cells was conducted with a confocal laser scanning microscope (CLSM) (Leica TCS SP). Thirty cells in each group were randomly selected in different microscopic fields for quantitative detection. In detail, each well was equally divided into nine fields and numbered sequentially from the top right corner. Four fields were randomly selected according to a random number table. Thirty cells were then randomly selected from these four fields. All images were analyzed blind regarding exposure parameters, which were coded by one person and read by another who was blinded to the code. The fluorescence intensity of the γ-H2AX signal on selected images was automatically analyzed using the Image-J software. The Statistical Product and Service Solutions (SPSS 21) program was employed to analyze the data through ANOVA. Significant difference from iron-overloaded group are marked with * p < 0.05, ** p < 0.01, and *** p < 0.001.
(§1) 2.1 Immunofluorescence analysis of intracellular γ-H2AX generation in Hela cells
(§2) Fixed cells were permeabilized with 0.25% Triton-X100 in PBS for 10 min and blocked in 10%
(§3) normal goat serum, 0.1% tween 20 in PBS for 1 hour. The cells were incubated with primary
(§4) monoclonal antibody, γ-H2AX (Ser139, 20E3, Rabbit, mAb #9718) (1:600) overnight at 4°C, and then
(§5) stained secondary antibodies, anti-rabbit Alexa-488 and anti-mouse (Cell Signaling Technology) for
(§6) 1 hour. After Hoechst 33342 (10 μg/mL) staining for 2 min, dishes were mounted in ProLong™ Gold
(§7) Antifade Mountant (Invitrogen™) and stored at 4°C in the dark before confocal laser-scanning by
(§8) Broadband Confocal Leica TCS SP5. The CLSM images were obtained with the following excitation
respectively. Cells were washed 3 times with PBS (200 μL/well) at intervals. […]

HeLa cells [2] = experiment: Labile iron pool (LIP) determination with calcein-AM in iron-overloaded HeLa cells, flow cytometry; type: cell-based, human; settings: for Fluorescence intensity of calcein-AM (LIP level): 15 min, Fe(II) alone 0.63-0.64
Method: HeLa cells (10^6/mL) were loaded by incubation with 20 μM Fe(II) for 2 h at 37 °C. Subsequently, cells were collected by centrifugation (1000 rpm for 5 min) and incubated with 0.5 μM calcein-AM for 15 min at 37 °C in a D’hanks buffer of pH 7.4. Cells were then washed twice by D’hanks buffer (pH 7.4) and incubated with or without CAPE and its analogues. The fluorescence was monitored by both flow cytometry (BD FACS Caliber) and a CLSM (Leica TCS SP). The experiment was repeated three times.
Figure 3 Effect of CAPE and its analogues on the LIP level in iron-overloaded cells, as measured by flow cytometry (A–D). HeLa cells were pretreated with 20 μM Fe(II) for 2 h and then incubated with calcein-AM. After 15 min, cells were washed and incubated with or without CAPE and its analogues for 15 min. The fluorescence intensity of cells was measured by flow cytometry. Significant differences from the iron-overloaded group are marked with * p < 0.05, ** p < 0.01, and *** p < 0.001. The experiment was repeated three times.

plasmid pBR322 DNA = experiment: Plasmid DNA strand breakage induced by Fe(III)–citrate/ascorbate/H2O2, agarose gel electrophoresis; type: biochemical; settings: for Protective effect against iron-mediated DNA damage through inhibiting •OH generation, in words: isolated DNA, Fe(III) and Fe(II) systems, Figures S9–S12
Method: Plasmid DNA agarose gel electrophoresis was employed to investigate protective effect of CAPE and its analogues against DNA strand breakage induced by an iron-mediated system. For experimental procedure details, please refer to the Supplementary Materials.
Figure 4 Protective effect of CAPE and its analogues against Fe(III)–citrate–ascorbate–H2O2-induced DNA damage. […] The reaction mixture contained 20 μM Fe(III)–citrate, 10 μM ascorbate, and 200 μM H2O2, as well as the indicated concentrations of CAPE and its analogues. The experiments were repeated three times, and only typical images are presented. […]
(§9) The experiments were conducted via incubation of plasmid pBR322 DNA (5 μg/mL) at 37 °C for
(§10) 30 min in Chelex-treated HEPES buffer (100 mM, pH 7.4) with the iron-containing systems, in the
absence or presence of the indicated concentrations of CAPE and its analogues. […]

[3] = Calcein fluorescence quenching by Fe(III)–citrate, competition by ligand; type: binding; settings: 0.1 μM calcein, 100 μM Fe(III)–citrate, 100–500 μM compound
Method: In the presence of calcein, mixtures of CAPE and Fe(III)/Fe(II) with different concentrations in 20 mM HEPES (pH 7.4) were used for fluorescence detection (Ex: 488 nm; Em: 515 nm). Fluorescence spectra were recorded using a Cary Eclipse fluorescence spectrophotometer (Varian, Palo Alto, CA, USA).
Figure 7 Effect of CAPE and its analogues on the fluorescence intensity of calcein–Fe(III)–citrate. (A,B) the fluorescence quenching of calcein by Fe(III)–citrate diminished in a (CAPE/CA:Fe(III)) ratio-dependent manner. […] The reaction mixture contained 0.1 μM calcein, 100 μM Fe(III)–citrate, and indicated concentrations of CAPE or its analogues (100–500 μM). The experiments were repeated three times, and only typical spectra are presented.

[4] = Cyclic voltammetry of Fe(III) chelated by ligand; type: physicochemical; settings: 100 mM PB pH 7.4, SCE reference, 2 mV/s; Fe(III) alone approximately −0.65 V
Method: CV was performed in 100 mM PB (pH 7.4) on a Princeton Applied Research (VersaSTAT3) potentiostat with a Pt wire as the counter electrode, a saturated calomel electrode (SCE) as the reference electrode, and a glassy carbon electrode (5 mm in diameter) as the working electrode. The scan rate was 2 mV/s.

HeLa cells [5] = experiment: Labile iron pool (LIP) determination with calcein-AM in iron-overloaded HeLa cells, flow cytometry; type: cell-based, human; settings: 500 μM compound alone, no iron
[6] = 1-octanol/phosphate buffer partitioning, shake-flask method; type: physicochemical; settings: 1-octanol / 100 mM phosphate buffer pH 7.4, shake-flask
[7] = ESR spin-trapping (DMPO) of •OH generated by Fe(III)–citrate–ascorbate–H2O2; type: biochemical; settings: 100 μM Fe(III)–citrate, 100 μM ascorbate, 1 mM H2O2
Method: The basic system used in this study consisted of Fe(III)/Fe(II), ascorbate, H2O2, and the spin trapping agent DMPO (100 mM) in 20 mM HEPES (pH 7.4) with or without CAPE and its analogues.
The reaction mixture contained 100 μM Fe(III)–citrate, 100 μM ascorbate, and 1 mM H2O2, as well as the indicated concentrations of CAPE and its analogues. The experiments were repeated three times, and only typical spectra are presented.
spectrometer parameters were as follows: scan range, 100 G; field set, 3470 G; time constant, 200 ms;
scan time, 100 s; modulation amplitude, 1.0 G; modulation frequency, 100 kHz; receiver gain,

[8] = Dissolved oxygen consumption by ascorbic acid/Fe(III)–citrate; type: biochemical; settings: 100 μM Fe(III)-citrate, 1 mM ascorbate, ratio 5:1
Method: as §1, §2, §3, §4, §5, §6, §7, §8
respectively. Cells were washed 3 times with PBS (200 μL/well) at intervals.
as §9, §10
absence or presence of the indicated concentrations of CAPE and its analogues.
2.3 Electron spin resonance (ESR) spin-trapping studies
ESR spectra were recorded at room temperature in a Bruker ESR 300 spectrometer. Typical […]
The consumption of O2 was measured by Orion 3 dissolved oxygen meter (Thermo Scientific, […]
Corona Needle current was 3000 nA. The size of data points was recorded in 4 M format. […]

[9] = 20 μM Fe(III)–citrate, 10 μM ascorbate, 200 μM H2O2

| Reduction potential of Fe(III) chelated by compound [4] | LogKow [6] | SMILES | Fluorescence intensity of γ-H2AX (HeLa cells [1]; Fe(II)-H2O2 + 50 μM compound) | Fluorescence intensity of γ-H2AX (HeLa cells [1]; Fe(II)-H2O2 + 100 μM compound) | Fluorescence intensity of γ-H2AX (HeLa cells [1]; Fe(II)-H2O2 + 200 μM compound) | Fluorescence intensity of γ-H2AX (HeLa cells [1]; Fe(II)-H2O2 + 500 μM compound) | Concentration that significantly inhibits cellular DNA damage induced by iron overload (with H2O2) (HeLa cells [1]) | Fluorescence intensity of calcein-AM (LIP level) (HeLa cells [2]; 20 μM Fe(II) + 50 μM compound) | Fluorescence intensity of calcein-AM (LIP level) (HeLa cells [2]; 20 μM Fe(II) + 200 μM compound) | Fluorescence intensity of calcein-AM (LIP level) (HeLa cells [2]; 20 μM Fe(II) + 500 μM compound) | Concentration that significantly regenerates calcein fluorescence (decreases LIP level) (HeLa cells [2]; iron-overloaded HeLa cells) | Protective effect against Fe(III)–citrate–ascorbate–H2O2-induced DNA damage, in words (plasmid pBR322 DNA; [9]) | Concentration range with the stated inhibition of Fe(III)-citrate-Vc-H2O2 induced DNA damage (plasmid pBR322 DNA; 20 μM Fe(III)–citrate, 10 μM ascorbate, 200 μM H2O2, CAPE significantly, CA slightly) | Inhibition of calcein fluorescence quenching by Fe(III)–citrate, in words [3] | Fluorescence intensity of calcein-AM (LIP level) (HeLa cells [5]) | Protective effect against iron-mediated DNA damage through inhibiting •OH generation, in words (plasmid pBR322 DNA) | Inhibition of cellular DNA damage induced by iron overload (with H2O2), in words (HeLa cells [1]) | Effect on calcein fluorescence (LIP level), in words (HeLa cells [2]; iron-overloaded HeLa cells, 50–500 μM) | Inhibitory effect against Fe(III)-citrate-Vc-H2O2 induced •OH generation, in words [7] | Effect on O2 consumption induced by ascorbic acid/Fe(III)–citrate, in words [8] |
| --- | --- | --- | --- | --- | --- | --- | --- | --- | --- | --- | --- | --- | --- | --- | --- | --- | --- | --- | --- | --- |
| −0.76 V |  | O=C(O)/C=C/c1ccc(O)c(O)c1 [CA, caffeic acid] | 3.13±0.42 Fold of Control | 3.09±0.51 Fold of Control | 2.82±0.43 Fold of Control | 1.73±0.43 Fold of Control | 500 µM | 0.63±0.02 Fold of Control | 0.64±0.01 Fold of Control | 0.70±0.02 Fold of Control | 500 µM | lower than CAPE; also recorded: slightly inhibited | 20 to 200 µM | weaker inhibition | 1.00±0.02 Fold of Control |  |  |  |  |  |
| −0.99 V | 1.51 ± 0.03 | CCOC(=O)/C=C/c1ccc(O)c(O)c1 [CAEE, caffeic acid ethyl ester] |  |  |  |  | 50 to 500 µM |  |  |  | 50 to 500 µM |  |  |  |  | weaker than CAPE |  |  |  |  |
| −0.79 V | 1.27 ± 0.06 | COC(=O)/C=C/c1ccc(O)c(O)c1 [CAME, caffeic acid methyl ester] |  |  |  |  | 100 to 500 µM |  |  |  | 200 to 500 µM |  |  |  |  | weaker than CAPE |  |  |  |  |
|  | 1.38 ± 0.02 | CCOC(=O)/C=C/c1ccc(O)c(OC)c1 [EF, ethyl ferulate] |  |  |  |  |  | 0.65±0.03 Fold of Control | 0.62±0.02 Fold of Control | 0.61±0.02 Fold of Control |  | no significant protective effect |  | no inhibitory effects | 0.99±0.01 Fold of Control |  | no significant inhibition | no effect | no inhibitory effect | no significant effects |
|  |  | c1cnc2c(c1)ccc1cccnc12 [OP, 1,10-phenanthroline, reference compound] |  |  |  |  |  |  |  |  |  |  |  |  |  |  | effective |  |  |  |
